Laboratory results from patent US9617267B2, “Compounds and methods for kinase modulation, and indications therefor” (Plexxikon Inc., priority 2009, dated 2017).
Where two headings read alike, the source gives them in different places.

Experiments:
CYP3A4(BFC) = CYP3A4(BFC) (Homo sapiens (Human), UniProt P08684); assay: CYP enzyme inhibition, fluorescent substrate BFC
Procedure, shortened: (§1)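 Human CYP activity was followed by the fluorescence of the metabolized product of a known substrate, which falls as metabolism is inhibited. Compounds from 100 mM DMSO stocks were serially diluted 1:1 over 10 points in co-factor mix and preincubated 10 min at 37 °C. IC50 was fitted from signal versus concentration.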

[1] = Relative solubility by turbidity threshold concentration in aqueous buffers (pH 1.5, 4.5, 6.8, 7.4); assay type: physicochemical; conditions: for turbidity threshold (L, M, H) 1.4: pH 1.4 [sic] (method: SGF pH 1.5); for turbidity threshold (L, M, H) 4.5: pH 4.5 (SIF); for turbidity threshold (L, M, H) 6.8: pH 6.8 (SIF); for turbidity threshold (L, M, H) 7.4: pH 7.4 (HEPES)
Procedure, shortened: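 Solubility class (high >250 μM, moderate 31.3–250 μM, low <31.3 μM) comes from the concentration where absorbance reaches a 0.01 threshold, averaged across 490/535/650 nm. Samples were compound dilutions from DMSO stock, 1 μL into 99 μL buffer at pH 1.5, 4.5, 6.8 or 7.4.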

B-Raf V600E = B-Raf V600E (Homo sapiens (Human), UniProt P15056, V600E); assay: B-Raf V600E kinase activity biochemical assay (AlphaScreen, biotin-MEK1 phosphorylation); conditions: for IC50: B-Raf V600E; for Biochemical activity ratio V600E/C: ratio of IC50 B-Raf V600E / c-Raf-1
Sequence of B-Raf V600E (P15056 whole entry V600E): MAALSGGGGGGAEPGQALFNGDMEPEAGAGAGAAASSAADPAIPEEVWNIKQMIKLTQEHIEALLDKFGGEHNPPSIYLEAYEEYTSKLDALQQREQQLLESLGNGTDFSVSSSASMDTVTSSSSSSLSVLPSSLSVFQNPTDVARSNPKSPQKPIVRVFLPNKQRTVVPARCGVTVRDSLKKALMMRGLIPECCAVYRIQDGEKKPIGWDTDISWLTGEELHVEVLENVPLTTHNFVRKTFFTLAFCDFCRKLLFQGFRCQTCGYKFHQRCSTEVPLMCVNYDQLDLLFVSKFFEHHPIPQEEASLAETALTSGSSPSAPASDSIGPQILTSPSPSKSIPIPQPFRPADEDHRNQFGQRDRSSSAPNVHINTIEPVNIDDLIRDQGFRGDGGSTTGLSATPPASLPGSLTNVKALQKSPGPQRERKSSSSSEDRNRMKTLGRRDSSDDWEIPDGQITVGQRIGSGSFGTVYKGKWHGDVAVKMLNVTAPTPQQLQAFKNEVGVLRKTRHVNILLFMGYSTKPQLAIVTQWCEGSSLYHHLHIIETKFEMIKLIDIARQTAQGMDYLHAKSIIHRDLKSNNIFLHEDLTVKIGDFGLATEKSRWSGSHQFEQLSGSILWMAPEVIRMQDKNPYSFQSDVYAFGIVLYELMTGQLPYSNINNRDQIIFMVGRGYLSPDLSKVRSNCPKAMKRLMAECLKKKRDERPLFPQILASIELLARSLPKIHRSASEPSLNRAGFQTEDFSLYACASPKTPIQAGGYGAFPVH
Procedure, shortened: (§2)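 Biotin-MEK1 phosphorylation measured after 45 min kinase reaction at RT with 100 μM ATP final; compounds tested at 8 points from 0.1 mM DMSO stock.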

CYP2C19 = CYP2C19 (Homo sapiens (Human), UniProt P33261); assay: CYP enzyme inhibition, fluorescent substrate (CEC)
Sequence of CYP2C19 (P33261 whole entry): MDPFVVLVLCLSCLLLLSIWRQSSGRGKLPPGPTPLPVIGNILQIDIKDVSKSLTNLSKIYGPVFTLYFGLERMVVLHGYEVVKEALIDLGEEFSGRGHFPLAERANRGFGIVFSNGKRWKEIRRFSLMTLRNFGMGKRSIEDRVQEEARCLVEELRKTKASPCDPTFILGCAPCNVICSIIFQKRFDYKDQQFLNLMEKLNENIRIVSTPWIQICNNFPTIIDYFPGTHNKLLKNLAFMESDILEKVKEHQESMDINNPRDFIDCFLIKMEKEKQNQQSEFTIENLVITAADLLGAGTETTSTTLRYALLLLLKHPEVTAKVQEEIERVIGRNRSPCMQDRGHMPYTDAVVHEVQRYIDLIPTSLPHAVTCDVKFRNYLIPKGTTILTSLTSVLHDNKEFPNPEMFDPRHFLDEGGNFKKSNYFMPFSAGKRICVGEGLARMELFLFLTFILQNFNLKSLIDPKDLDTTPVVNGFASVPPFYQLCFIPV
Procedure, shortened: as §1

c-Raf-1 = c-Raf-1 (Homo sapiens, UniProt P04049); assay: c-Raf-1 kinase activity biochemical assay (AlphaScreen, biotin-MEK1 phosphorylation)
Sequence of c-Raf-1 (P04049 whole entry, looked up): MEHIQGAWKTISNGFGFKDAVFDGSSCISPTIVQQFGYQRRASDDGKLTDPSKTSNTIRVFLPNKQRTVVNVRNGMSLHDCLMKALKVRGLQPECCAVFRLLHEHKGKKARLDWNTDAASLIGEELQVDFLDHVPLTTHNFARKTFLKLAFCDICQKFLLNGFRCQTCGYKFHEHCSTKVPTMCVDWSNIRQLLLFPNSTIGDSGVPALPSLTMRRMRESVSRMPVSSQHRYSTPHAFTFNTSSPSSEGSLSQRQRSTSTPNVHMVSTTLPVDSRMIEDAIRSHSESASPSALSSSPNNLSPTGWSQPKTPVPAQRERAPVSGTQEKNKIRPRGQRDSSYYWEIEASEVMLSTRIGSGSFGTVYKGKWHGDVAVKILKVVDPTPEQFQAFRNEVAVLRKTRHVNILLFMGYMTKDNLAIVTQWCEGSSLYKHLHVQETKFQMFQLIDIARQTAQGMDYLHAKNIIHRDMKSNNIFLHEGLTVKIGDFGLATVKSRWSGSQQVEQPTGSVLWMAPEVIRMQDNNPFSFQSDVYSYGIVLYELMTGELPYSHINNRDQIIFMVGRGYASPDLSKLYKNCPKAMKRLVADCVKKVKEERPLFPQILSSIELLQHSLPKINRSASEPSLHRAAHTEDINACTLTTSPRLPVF
Procedure, shortened: as §2

B-Raf [2] = assay: B-Raf kinase activity biochemical assay (AlphaScreen, biotin-MEK1 phosphorylation); conditions: for Biochemical activity ratio B/V600E: ratio of IC50 B-Raf / B-Raf V600E; for Biochemical activity ratio B/C: ratio of IC50 B-Raf / c-Raf-1
Procedure, shortened: as §2

B-Raf [3] = target: B-Raf (Homo sapiens (Human), UniProt P15056); assay: as above; conditions: B-Raf
Sequence of B-Raf (Homo sapiens (Human), UniProt P15056) (P15056 whole entry): as the sequence (P15056 whole entry V600E) above, with E600V counted along it
Procedure, shortened: as §2

CYP3A4(BQ) = CYP3A4(BQ) (Homo sapiens (Human), UniProt P08684); assay: CYP enzyme inhibition, fluorescent substrate BQ
Sequence of CYP3A4(BQ) (P08684 whole entry): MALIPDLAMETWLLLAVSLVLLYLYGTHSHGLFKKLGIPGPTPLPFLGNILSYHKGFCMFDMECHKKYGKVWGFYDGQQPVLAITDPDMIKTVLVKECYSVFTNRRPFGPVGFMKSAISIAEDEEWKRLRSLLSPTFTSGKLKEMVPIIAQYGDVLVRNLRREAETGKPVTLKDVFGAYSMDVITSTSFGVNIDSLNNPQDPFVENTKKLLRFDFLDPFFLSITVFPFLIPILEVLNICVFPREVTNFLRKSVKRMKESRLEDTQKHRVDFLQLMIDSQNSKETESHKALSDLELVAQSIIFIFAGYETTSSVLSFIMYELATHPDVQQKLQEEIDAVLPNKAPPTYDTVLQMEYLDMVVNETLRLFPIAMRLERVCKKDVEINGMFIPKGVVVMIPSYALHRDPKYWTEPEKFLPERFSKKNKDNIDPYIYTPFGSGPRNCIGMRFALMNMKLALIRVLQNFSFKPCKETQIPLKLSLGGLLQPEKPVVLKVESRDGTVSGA
Procedure, shortened: as §1

CYP1A2 = CYP1A2 (Homo sapiens (Human), UniProt P05177); assay: CYP enzyme inhibition, fluorescent substrate (CEC)
Sequence of CYP1A2 (P05177 whole entry): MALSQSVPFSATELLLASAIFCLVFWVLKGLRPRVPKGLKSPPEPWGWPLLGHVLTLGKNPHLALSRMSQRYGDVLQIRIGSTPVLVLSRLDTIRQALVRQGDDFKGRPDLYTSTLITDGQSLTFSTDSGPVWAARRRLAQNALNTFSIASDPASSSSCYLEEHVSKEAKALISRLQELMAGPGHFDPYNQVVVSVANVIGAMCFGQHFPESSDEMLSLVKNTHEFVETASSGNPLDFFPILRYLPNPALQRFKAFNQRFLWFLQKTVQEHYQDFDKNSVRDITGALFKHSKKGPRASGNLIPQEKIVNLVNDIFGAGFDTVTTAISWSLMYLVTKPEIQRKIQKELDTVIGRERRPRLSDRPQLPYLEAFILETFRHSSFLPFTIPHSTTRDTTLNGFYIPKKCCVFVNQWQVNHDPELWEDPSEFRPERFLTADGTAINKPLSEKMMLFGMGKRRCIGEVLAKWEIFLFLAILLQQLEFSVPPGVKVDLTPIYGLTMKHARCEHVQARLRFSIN
Procedure, shortened: (§3)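 Ten-point 1:1 compound dilutions in NADPH-regenerating cofactor mix, pre-incubated 10 min at 37 °C before enzyme/substrate addition: CYP1A2 0.5 pmol with 5 μM CEC, 15 min, 409 ex/460 em; CYP2D6 1.5 pmol with 1.5 μM AMMC, 30 min, 409 ex/530 em. IC50 from fluorescent product vs concentration.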

CYP2C9 = CYP2C9 (Homo sapiens (Human), UniProt P11712); assay: CYP enzyme inhibition, fluorescent substrate (MFC)
Sequence of CYP2C9 (P11712 whole entry): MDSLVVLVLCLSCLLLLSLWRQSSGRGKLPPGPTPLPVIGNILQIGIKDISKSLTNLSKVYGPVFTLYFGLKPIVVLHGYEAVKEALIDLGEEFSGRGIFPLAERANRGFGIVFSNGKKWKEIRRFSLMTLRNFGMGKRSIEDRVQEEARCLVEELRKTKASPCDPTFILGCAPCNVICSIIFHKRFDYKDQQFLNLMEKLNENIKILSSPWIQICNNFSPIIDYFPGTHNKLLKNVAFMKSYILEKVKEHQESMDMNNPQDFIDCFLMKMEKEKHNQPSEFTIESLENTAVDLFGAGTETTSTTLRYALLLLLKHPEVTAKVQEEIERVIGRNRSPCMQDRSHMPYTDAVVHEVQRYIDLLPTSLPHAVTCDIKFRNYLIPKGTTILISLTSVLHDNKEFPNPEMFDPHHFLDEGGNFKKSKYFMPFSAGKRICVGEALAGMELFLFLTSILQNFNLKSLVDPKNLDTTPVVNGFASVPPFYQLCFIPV
Procedure, shortened: as §1

CYP2D6 = CYP2D6 (Homo sapiens (Human), UniProt P10635); assay: CYP enzyme inhibition, fluorescent substrate (AMMC); assay type: in vitro ADME; conditions: read-out: Cyp IC50 2D6
Sequence of CYP2D6 (P10635 whole entry): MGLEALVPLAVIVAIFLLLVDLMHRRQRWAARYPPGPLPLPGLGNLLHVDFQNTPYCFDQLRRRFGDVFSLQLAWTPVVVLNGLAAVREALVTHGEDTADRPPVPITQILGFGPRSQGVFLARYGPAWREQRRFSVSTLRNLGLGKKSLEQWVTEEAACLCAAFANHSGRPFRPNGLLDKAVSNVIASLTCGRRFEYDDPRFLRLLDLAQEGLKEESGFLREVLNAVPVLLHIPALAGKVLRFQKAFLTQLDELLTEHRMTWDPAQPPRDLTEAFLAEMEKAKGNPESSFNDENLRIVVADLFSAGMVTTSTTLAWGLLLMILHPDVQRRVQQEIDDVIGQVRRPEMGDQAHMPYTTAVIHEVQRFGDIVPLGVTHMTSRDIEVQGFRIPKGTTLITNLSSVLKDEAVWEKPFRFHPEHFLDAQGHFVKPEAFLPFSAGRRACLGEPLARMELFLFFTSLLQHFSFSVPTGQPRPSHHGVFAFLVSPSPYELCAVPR
Procedure, shortened: as §3

Sequence of CYP3A4(BFC) (P08684 whole entry): as the sequence (P08684 whole entry) above

| IC50 (CYP3A4(BFC)) | IC50 (B-Raf V600E) | Biochemical activity ratio V600E/C (B-Raf V600E) | IC50 (CYP2C19) | IC50 (c-Raf-1) | Biochemical activity ratio B/V600E (B-Raf [2]) | Biochemical activity ratio B/C (B-Raf [2]) | IC50 (B-Raf [3]) | IC50 (CYP3A4(BQ)) | IC50 (CYP1A2) | IC50 (CYP2C9) | IC50 (CYP2D6) | Structure (SMILES) | turbidity threshold (L, M, H) 1.4 [1] | turbidity threshold (L, M, H) 4.5 [1] | turbidity threshold (L, M, H) 6.8 [1] | turbidity threshold (L, M, H) 7.4 [1] | IC50 (CYP3A4(BFC); read-out: Cyp IC50 3A4(BFC), CYP3A4, substrate BFC) | IC50 (CYP2C19; read-out: Cyp IC50 2C19, CYP2C19, substrate CEC) | IC50 (CYP3A4(BQ); read-out: Cyp IC50 3A4(BQ), CYP3A4, substrate BQ) | IC50 (CYP1A2; human, 15 min) |
| --- | --- | --- | --- | --- | --- | --- | --- | --- | --- | --- | --- | --- | --- | --- | --- | --- | --- | --- | --- | --- |
| 5 to 10 µM | < 0.1 µM | 0.1-10 | < 5 µM | < 0.1 µM | 0.1-10 | >10 | < 0.1 µM | > 10 µM | > 10 µM | < 5 µM | > 10 µM | CCCS(=O)(=O)Nc1ccc(F)c(C(=O)c2c[nH]c3ncc(Cl)c(OC)c23)c1F [P-2006, Propane-1-sulfonic acid [3-(5-chloro-4-methoxy-1H-pyrrolo[2,3-b]pyridine-3-carbonyl)-2,4-difluoro-phenyl]-amide] | M (moderate solubility if the threshold concentration is 31.3 μM to 250 μM) | M (moderate solubility if the threshold concentration is 31.3 μM to 250 μM) | M (moderate solubility if the threshold concentration is 31.3 μM to 250 μM) | M (moderate solubility if the threshold concentration is 31.3 μM to 250 μM) | – | – | – | – |
| > 10 µM | < 0.1 µM | >10 | > 10 µM | < 0.1 µM | 0.1-10 | >10 | < 0.1 µM | > 10 µM | > 10 µM | 5 to 10 µM | < 5 µM | N#Cc1c(Cl)cnc2[nH]cc(C(=O)c3c(F)ccc(NS(=O)(=O)c4ccc(C(F)(F)F)cc4)c3F)c12 [P-2010, N-[3-(5-Chloro-4-cyano-1H-pyrrolo[2,3-b]pyridine-3-carbonyl)-2,4-difluoro-phenyl]-4-trifluoromethyl-benzenesulfonamide] | L (low solubility if the threshold concentration is <31.3 μM) | L (low solubility if the threshold concentration is <31.3 μM) | L (low solubility if the threshold concentration is <31.3 μM) | M (moderate solubility if the threshold concentration is 31.3 μM to 250 μM) | – | – | – | – |
| > 10 µM | < 0.1 µM | 0.1-10 | > 10 µM | < 0.1 µM | 0.1-10 | >10 | < 0.1 µM | > 10 µM | > 10 µM | < 5 µM | > 10 µM | CCCS(=O)(=O)Nc1ccc(F)c(C(=O)c2c[nH]c3ncc(C#N)c(Cl)c23)c1F [P-2004, Propane-1-sulfonic acid [3-(4-chloro-5-cyano-1H-pyrrolo[2,3-b]pyridine-3-carbonyl)-2,4-difluoro-phenyl]-amide] | L (low solubility if the threshold concentration is <31.3 μM) | L (low solubility if the threshold concentration is <31.3 μM) | L (low solubility if the threshold concentration is <31.3 μM) | L (low solubility if the threshold concentration is <31.3 μM) | – | – | – | – |

| Structure (SMILES) | IC50 (CYP3A4(BFC)) | IC50 (B-Raf V600E) | Biochemical activity ratio V600E/C (B-Raf V600E) | IC50 (CYP2C19) | IC50 (c-Raf-1) | Biochemical activity ratio B/V600E (B-Raf [2]) | Biochemical activity ratio B/C (B-Raf [2]) | IC50 (B-Raf [3]) | IC50 (CYP3A4(BQ)) | IC50 (CYP1A2) | IC50 (CYP2C9) | IC50 (CYP2D6) | turbidity threshold (L, M, H) 1.4 [1] | turbidity threshold (L, M, H) 4.5 [1] | turbidity threshold (L, M, H) 6.8 [1] | turbidity threshold (L, M, H) 7.4 [1] | IC50 (CYP3A4(BFC); read-out: Cyp IC50 3A4(BFC), CYP3A4, substrate BFC) | IC50 (CYP2C19; read-out: Cyp IC50 2C19, CYP2C19, substrate CEC) | IC50 (CYP3A4(BQ); read-out: Cyp IC50 3A4(BQ), CYP3A4, substrate BQ) | IC50 (CYP1A2; human, 15 min) |
| --- | --- | --- | --- | --- | --- | --- | --- | --- | --- | --- | --- | --- | --- | --- | --- | --- | --- | --- | --- | --- |
| COc1ncnc2[nH]cc(C(=O)c3c(F)ccc(NS(=O)(=O)CC(C)C)c3F)c12 [P-1004, 2-Methyl-propane-1-sulfonic acid [2,4-difluoro-3-(4-methoxy-7H-pyrrolo[2,3-d]pyrimidine-5-carbonyl)-phenyl]-amide] | – | < 0.1 µM | 0.1-10 | – | < 0.1 µM | >10 | >10 | > 0.1 µM | – | – | 5 to 10 µM | > 10 µM | H (high solubility if the threshold concentration is >250 μm) | H (high solubility if the threshold concentration is >250 μm) | H (high solubility if the threshold concentration is >250 μm) | H (high solubility if the threshold concentration is >250 μm) | > 10 µM | > 10 µM | > 10 µM | > 10 µM |
